Drawing on patent publication US12091411B2, “IRAK degraders and uses thereof” (Kymera Therapeutics, Inc., priority 2022, dated 2024), this text covers DC50 for 26 compounds.

For this assay, the target named is T1, IRAK4 (Homo sapiens, UniProt Q9NWZ3).
T1 construct: Degradation of IRAK4 in OCI-LY10 was quantitatively measured using Meso Scale Discovery technology; endogenous in cells; host or cells: OCI-LY10
T1 sequence (Q9NWZ3 1-460): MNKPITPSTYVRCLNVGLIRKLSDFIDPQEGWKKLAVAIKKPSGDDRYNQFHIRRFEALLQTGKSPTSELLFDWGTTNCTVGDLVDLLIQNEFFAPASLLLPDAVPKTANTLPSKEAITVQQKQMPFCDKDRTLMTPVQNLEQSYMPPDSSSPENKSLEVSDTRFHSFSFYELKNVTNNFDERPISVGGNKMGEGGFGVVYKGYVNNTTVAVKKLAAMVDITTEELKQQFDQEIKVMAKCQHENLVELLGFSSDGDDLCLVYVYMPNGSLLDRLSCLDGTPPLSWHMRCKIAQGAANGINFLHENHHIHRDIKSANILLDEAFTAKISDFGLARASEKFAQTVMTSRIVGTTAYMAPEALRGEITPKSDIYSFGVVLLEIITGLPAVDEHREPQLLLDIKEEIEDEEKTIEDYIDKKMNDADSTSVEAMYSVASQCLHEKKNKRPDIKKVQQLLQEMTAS
Put plainly: IRAK4 MSD Degradation in OCI-LY10. Type of assay: cell-based. Particulars: OCI-LY10 cells, MSD. The gist of the method:
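DC50, from a three-parameter logistic fit and reported as letter bins A (<0.01 μM), B, C, D (>0.2 μM or not tested), reflects IRAK4 loss measured by MSD electrochemiluminescence in OCI-LY10 lysates. Treatment: 8 doses, 1:3 steps, top 1 to 10 μM, 4 to 24 h, 37 °C.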

Setting [1] is: 4 hrs incubation, read-out: IRAK4 degradation in OCI-LY10 at 4 hrs: DC50.
The mark [2] stands for this setting: 24 hrs incubation, read-out: IRAK4 degradation in OCI-LY10 at 24 hrs: DC50.

Where two headings read alike, the source gives them in different places.

As for `COc1cc2nn([C@H]3CC[C@H](CN4CCC5(CC4)CCN(c4cccc6c4n(C)c(=O)n6C4CCC(=O)NC4=O)CC5)CC3)cc2cc1NC(=O)c1cncc(C(C)(C)C#N)c1` (stereo partly shown) [I-185], the 50% degradation concentration (DC50) is, setting by setting: under setting [1], over 200 nM; under setting [2], over 200 nM.

Consider `Cn1c(=O)n(C2CCC(=O)NC2=O)c2cccc(N3CCC4(CCN(C[C@H]5CC[C@H](n6cc7cc(NC(=O)c8cncc(C#N)c8)c(F)cc7n6)CC5)CC4)CC3)c21` (stereo partly shown) [I-186], for which the DC50 by setting is: under setting [1], over 200 nM; under setting [2], over 200 nM.

As to `Cn1c(=O)n(C2CCC(=O)NC2=O)c2cccc(N3CCC4(CCN(C[C@H]5CC[C@H](n6cc7cc(NC(=O)c8cncc(C#N)c8)c(C(F)F)cc7n6)CC5)CC4)CC3)c21` (stereo partly shown) [I-187], the DC50 is over 200 nM under setting [1] and over 200 nM under setting [2].

In the case of `Cn1c(=O)n(C2CCC(=O)NC2=O)c2cccc(N3CCC4(CCN(C[C@H]5CC[C@@H](n6cc(NC(=O)c7cnn8ccc(N9CC%10C[C@@H]9CO%10)nc78)c(C(F)F)n6)CC5)CC4)CC3)c21` (stereo partly shown) [I-188], the DC50 is, setting by setting: under setting [1], under 10 nM; under setting [2], over 200 nM.

Turning to `Cn1c(=O)n(C2CCC(=O)NC2=O)c2cccc(N3CCN(CC4CCC(n5cc(NC(=O)c6cnn7ccc(N8CC9C[C@@H]8CO9)nc67)c(C(F)F)n5)CC4)CC3)c21` (stereo partly shown) [I-189], the DC50 was 10 to 100 nM under setting [1] and over 200 nM under setting [2].

With `Cn1c(=O)n(C2CCC(=O)NC2=O)c2cccc(CN3CCN(C[C@H]4CC[C@H](n5cc(NC(=O)c6cnn7ccc(N8CC9C[C@@H]8CO9)nc67)c(C(F)F)n5)CC4)CC3)c21` (stereo partly shown) [I-190], the DC50 under setting [1] was in the range of 10 to 100 nM and the DC50 under setting [2] is over 200 nM.

For `COCc1cncc(C(=O)Nc2cc3cn([C@H]4CC[C@H](CN5CCC6(CC5)CCN(c5cccc7c5n(C)c(=O)n7C5CCC(=O)NC5=O)CC6)CC4)nc3cc2OC)c1` (stereo partly shown) [I-191], the 50% degradation concentration (DC50) by setting is: under setting [1], 10 to 100 nM; under setting [2], over 200 nM.

Take `CC([C@H]1CC[C@H](n2cc(NC(=O)c3cnn4ccc(C5CC6C[C@@H]5CO6)nc34)c(C(F)F)n2)CC1)N1CCC(OCC#Cc2cccc3c2n(C)c(=O)n3C2CCC(=O)NC2=O)CC1` (stereo partly shown) [I-192]: the DC50 under setting [1] is over 200 nM and the DC50 under setting [2] was over 200 nM.

As to `Cn1c(=O)n(C2CCC(=O)NC2=O)c2cccc(C#CCOC3CCN(C(C#N)[C@H]4CC[C@H](n5cc(NC(=O)c6cnn7ccc(N8C[C@H]9C[C@@H]8CO9)nc67)c(C(F)F)n5)CC4)CC3)c21` (stereo partly drawn) [I-193, N-[1-[4-[cyano-[4-[3-[1-(2,6-dioxo-3-piperidyl)-3-methyl-2-oxo-benzimidazol-4-yl]prop-2-ynoxy]-1-piperidyl]methyl]cyclohexyl]-3-(difluoromethyl)pyrazol-4-yl]-5-[(1R,4R)-2-oxa-5-azabicyclo[2.2.1]heptan-5-yl]pyrazolo[1,5-a]pyrimidine-3-carboxamide], the DC50 is, setting by setting: under setting [1], over 200 nM; under setting [2], over 200 nM.

As for `CC([C@H]1CC[C@H](n2cc(NC(=O)c3cnn4ccc(N5C[C@H]6C[C@@H]5CO6)nc34)c(C(F)F)n2)CC1)N1CCN(CC#Cc2cccc3c2n(C)c(=O)n3C2CCC(=O)NC2=O)CC1` (stereo partly shown) [I-194], the DC50 reads like this: under setting [1], over 200 nM; under setting [2], over 200 nM.

Consider `CC([C@H]1CC[C@H](n2cc(NC(=O)c3cnn4ccc(N5C[C@H]6C[C@@H]5CO6)nc34)c(C(F)F)n2)CC1)N1CCN(CCCc2cccc3c2n(C)c(=O)n3C2CCC(=O)NC2=O)CC1` (stereo partly shown) [I-195], for which the DC50 is, setting by setting: under setting [1], over 200 nM; under setting [2], over 200 nM.

On to `Cn1c(=O)n(C2CCC(=O)NC2=O)c2cccc(C#CCN3CCN(C(C#N)[C@H]4CC[C@H](n5cc(NC(=O)c6cnn7ccc(N8C[C@H]9C[C@@H]8CO9)nc67)c(C(F)F)n5)CC4)CC3)c21` (stereo partly shown) [I-196], for which the DC50 under setting [1] is over 200 nM and the DC50 under setting [2] is 10 to 100 nM.

As to `Cn1c(=O)n(C2CCC(=O)NC2=O)c2cccc(CCCN3CCN(C(C#N)[C@H]4CC[C@H](n5cc(NC(=O)c6cnn7ccc(N8C[C@H]9C[C@@H]8CO9)nc67)c(C(F)F)n5)CC4)CC3)c21` (stereo partly shown) [I-197], the DC50 is 10 to 100 nM under setting [1] and over 200 nM under setting [2].

Regarding `O=C1CCC(c2ccc(C#CCOC3CCN(C[C@H]4CC[C@H](n5cc(NC(=O)c6cnn7ccc(N8C[C@H]9C[C@@H]8CO9)nc67)c(C(F)F)n5)CC4)CC3)cc2)C(=O)N1` (stereo partly shown) [I-198], the DC50 reads like this: under setting [1], 10 to 100 nM; under setting [2], 10 to 100 nM.

Turning to `O=C1CCC(c2cccc(C#CCOC3CCN(C[C@H]4CC[C@H](n5cc(NC(=O)c6cnn7ccc(N8C[C@H]9C[C@@H]8CO9)nc67)c(C(F)F)n5)CC4)CC3)c2)C(=O)N1` (stereo partly shown) [I-199], the DC50 reads like this: under setting [1], over 200 nM; under setting [2], 10 to 100 nM.

For the compound `Cn1c(=O)n(C2CCC(=O)NC2=O)c2cccc(N3CCN([C@H]4CC[C@H](n5cc(NC(=O)c6cnn7ccc(N8C[C@H]9C[C@@H]8CO9)nc67)c(C(F)F)n5)CC4)CC3)c21` (stereo partly shown) [I-200], the DC50 is, setting by setting: under setting [1], 10 to 100 nM; under setting [2], over 200 nM.

`Cn1c(=O)n(C2CCC(=O)NC2=O)c2cccc(C3CCN(C4CCN([C@H]5CC[C@H](n6cc(NC(=O)c7cnn8ccc(N9C[C@H]%10C[C@@H]9CO%10)nc78)c(C(F)F)n6)CC5)CC4)CC3)c21` (stereo partly shown) [I-202]: the DC50 is under 10 nM under setting [1] and over 200 nM under setting [2].

`Cn1c(=O)n(C2CCC(=O)NC2=O)c2cccc(N3CCC(N4CCN([C@H]5CC[C@H](n6cc(NC(=O)c7cnn8ccc(N9C[C@H]%10C[C@@H]9CO%10)nc78)c(C(F)F)n6)CC5)CC4)CC3)c21` (stereo partly shown) [I-203]: the DC50 is, setting by setting: under setting [1], over 200 nM; under setting [2], over 200 nM.

In the case of `COc1cc2nc([C@H]3CC[C@H](CN4CCC5(CC4)CCN(c4cccc6c4n(C)c(=O)n6C4CCC(=O)NC4=O)CC5)CC3)ccc2cc1NC(=O)c1cncc(C#N)c1` (stereo partly shown) [I-204], the DC50 runs as follows: under setting [1], under 10 nM; under setting [2], over 200 nM.

As to `Cn1c(=O)n(C2CCC(=O)NC2=O)c2cccc(C#CCOC3CCN(C[C@H]4CC[C@H](c5nc(C(F)F)c(NC(=O)c6cnn7ccc(N8C[C@H]9C[C@@H]8CO9)nc67)s5)CC4)CC3)c21` (stereo partly shown) [I-205], the DC50 runs as follows: under setting [1], over 200 nM; under setting [2], over 200 nM.

As for `Cn1c(=O)n(C2CCC(=O)NC2=O)c2cccc(C#CCOC3CCN(C[C@H]4CC[C@H](c5nc(C(F)F)c(NC(=O)c6cnn7ccc(N8C[C@H]9C[C@@H]8CO9)nc67)o5)CC4)CC3)c21` (stereo partly shown) [I-206], the DC50 was over 200 nM under setting [1] and over 200 nM under setting [2].

On to `Cn1c(=O)n(C2CCC(=O)NC2=O)c2cccc(C#CCOC3CCN(CC4CCN(c5nc(C(F)F)c(NC(=O)c6cnn7ccc(N8C[C@H]9C[C@@H]8CO9)nc67)s5)CC4)CC3)c21` (stereo partly shown) [I-207], for which the DC50 under setting [1] was over 200 nM and the DC50 under setting [2] is over 200 nM.

For the compound `Cn1c(=O)n(C2CCC(=O)NC2=O)c2cccc(C#CCOC3CCN(CC4CCN(c5nc(C(F)F)c(NC(=O)c6cnn7ccc(N8C[C@H]9C[C@@H]8CO9)nc67)o5)CC4)CC3)c21` (stereo partly shown) [I-208], the DC50 was over 200 nM under setting [1] and over 200 nM under setting [2].

As for `O=C1CCN(c2cccc(C#CCOC3CCN(C[C@H]4CC[C@H](n5cc(NC(=O)c6cnn7ccc(N8C[C@H]9C[C@@H]8CO9)nc67)c(C(F)F)n5)CC4)CC3)c2)C(=O)N1` [I-209], the DC50 is, setting by setting: under setting [1], over 200 nM; under setting [2], over 200 nM.

With `Cn1c(=O)n(C2CCC(=O)NC2=O)c2cccc(C#CCOC3CCN(C[C@H]4CC[C@H](n5cc(NC(=O)c6cccc(C(F)(F)F)n6)c(C(F)F)n5)CC4)CC3)c21` (stereo partly shown) [I-210], the DC50 is, setting by setting: under setting [1], over 200 nM; under setting [2], over 200 nM.

Regarding `Cn1c(=O)n(C2CCC(=O)NC2=O)c2cccc(C#CCN3CCN(C[C@H]4CC[C@H](n5cc(NC(=O)c6cccc(C(F)(F)F)n6)c(C(F)F)n5)CC4)CC3)c21` (stereo partly shown) [I-211], the DC50 reads like this: under setting [1], over 200 nM; under setting [2], over 200 nM.
